The source of these data is patent US7534782B2, “Crystal of 1-methylcarbapenem solvate” (Sankyo Company, Limited, priority 2003, dated 2009).

Read-outs that look alike come from different tables or passages of the source.

Data set [1] is described as follows: storage stability of the crystalline forms. In kind it is physicochemical.
Data set [2] deals with Gram-negative bacterial strains and Gram-positive bacterial strains. The settings on record: cited from earlier work.

As to `C[C@@H](O)[C@H]1C(=O)N2C(C(=O)O)=C(S[C@H]3C[C@@H](C(=O)N4CC[C@H](NC(=O)CNC(=N)N)C4)N(C)C3)[C@H](C)[C@H]12` [Crystalline form (I-1), (1R,5S,6S)-2-[(2S,4S)-2-[(3S)-3-(2-Guanidinoacetylamino)pyrrolidin-1-ylcarbonyl]-1-methylpyrrolidin-4-ylthio]-6-[(1R)-1-hydroxyethyl]-1-methyl-1-carbapen-2-em-3-carboxylic acid ethanolate], the “storage stability under dry conditions” value in data set [1] (dry conditions) was “improved storage stability”.

Take `C[C@@H](O)[C@H]1C(=O)N2C(C(=O)O)=C(S[C@H]3C[C@@H](C(=O)N4CC[C@H](NC(=O)CNC(=N)N)C4)N(C)C3)[C@H](C)[C@H]12` [Crystalline form (I-2), (1R,5S,6S)-2-[(2S,4S)-2-[(3S)-3-(2-Guanidinoacetylamino)pyrrolidin-1-ylcarbonyl]-1-methylpyrrolidin-4-ylthio]-6-[(1R)-1-hydroxyethyl]-1-methyl-1-carbapen-2-em-3-carboxylic acid tetrahydrate]: the “stability during storage under conditions of normal or high humidity” value in data set [1] is reported as “stable during storage”.

Consider `C[C@@H](O)[C@H]1C(=O)N2C(C(=O)O)=C(S[C@H]3C[C@@H](C(=O)N4CC[C@H](NC(=O)CNC(=N)N)C4)N(C)C3)[C@H](C)[C@H]12` [Crystalline form (I-3), (1R,5S,6S)-2-[(2S,4S)-2-[(3S)-3-(2-Guanidinoacetylamino)pyrrolidin-1-ylcarbonyl]-1-methylpyrrolidin-4-ylthio]-6-[(1R)-1-hydroxyethyl]-1-methyl-1-carbapen-2-em-3-carboxylic acid ethanolate trihydrate], for which the “stability during storage under conditions of normal or high humidity” value in data set [1] (trihydrate) is “remains stable during storage”.

`C[C@@H](O)[C@H]1C(=O)N2C(C(=O)O)=C(S[C@H]3C[C@@H](C(=O)N4CC[C@H](NC(=O)CNC(=N)N)C4)N(C)C3)[C@H](C)[C@H]12` [compound (I), (1R,5S,6S)-2-[(2S,4S)-2-[(3S)-3-(2-guanidinoacetylamino)pyrrolidin-1-ylcarbonyl]-1-methylpyrrolidin-4-ylthio]-6-[(1R)-1-hydroxyethyl]-1-methyl-1-carbapen-2-em-3-carboxylic acid]: the antibiotic activity entry in data set [2] is listed as “excellent antibiotic activity”; in data set [2] (listed as 1-methylcarbapenem compound of formula (I)) it was “potent antibiotic activity”.
